For orientation: pEC50 means the EC50 on a negative log10 scale, so that one unit is a factor of ten. Broadly, the IC50 is the concentration at which inhibition is half-maximal. Read a high IC50 as weaker potency.

Results on 17 molecules are retold here after ChEMBL document CHEMBL1154445, “Identification of "toxicophoric" features for predicting drug-induced QT interval prolongation” (Eur J Med Chem, 2008).

Data set [1] concerns Cavia porcellus. The data set can be described thus: Cardiotoxicity in Dunkin-Hartley guinea pig assessed as maximal QTc prolongation time at 10 mg/kg, iv administered as 3 fold cumulative doses measured every 10 seconds at end of every 20 mins follow up period of individual dose by ECG. The data set is classed as toxicity, organism-based. Conditions: in vivo. More on the design: dose 10 mg/kg, route intravenous.

Data set [2] concerns Cavia porcellus. The data set can be described thus: Cardiotoxicity in iv dosed Dunkin-Hartley guinea pig assessed as drug level required to evoke 50 ms QTc prolongation administered as 3 fold cumulative doses measured every 10 seconds at end of every 20 mins follow up period of individual dose by ECG.
Data set [3] deals with Voltage-gated inwardly rectifying potassium channel KCNH2 (Homo sapiens, UniProt Q12809). Description: Inhibition of human ERG channel in HEK293 cells by voltage-clamp method. The following applies: for pIC50(uM): human.
Voltage-gated inwardly rectifying potassium channel KCNH2, sequence (Q12809 whole entry): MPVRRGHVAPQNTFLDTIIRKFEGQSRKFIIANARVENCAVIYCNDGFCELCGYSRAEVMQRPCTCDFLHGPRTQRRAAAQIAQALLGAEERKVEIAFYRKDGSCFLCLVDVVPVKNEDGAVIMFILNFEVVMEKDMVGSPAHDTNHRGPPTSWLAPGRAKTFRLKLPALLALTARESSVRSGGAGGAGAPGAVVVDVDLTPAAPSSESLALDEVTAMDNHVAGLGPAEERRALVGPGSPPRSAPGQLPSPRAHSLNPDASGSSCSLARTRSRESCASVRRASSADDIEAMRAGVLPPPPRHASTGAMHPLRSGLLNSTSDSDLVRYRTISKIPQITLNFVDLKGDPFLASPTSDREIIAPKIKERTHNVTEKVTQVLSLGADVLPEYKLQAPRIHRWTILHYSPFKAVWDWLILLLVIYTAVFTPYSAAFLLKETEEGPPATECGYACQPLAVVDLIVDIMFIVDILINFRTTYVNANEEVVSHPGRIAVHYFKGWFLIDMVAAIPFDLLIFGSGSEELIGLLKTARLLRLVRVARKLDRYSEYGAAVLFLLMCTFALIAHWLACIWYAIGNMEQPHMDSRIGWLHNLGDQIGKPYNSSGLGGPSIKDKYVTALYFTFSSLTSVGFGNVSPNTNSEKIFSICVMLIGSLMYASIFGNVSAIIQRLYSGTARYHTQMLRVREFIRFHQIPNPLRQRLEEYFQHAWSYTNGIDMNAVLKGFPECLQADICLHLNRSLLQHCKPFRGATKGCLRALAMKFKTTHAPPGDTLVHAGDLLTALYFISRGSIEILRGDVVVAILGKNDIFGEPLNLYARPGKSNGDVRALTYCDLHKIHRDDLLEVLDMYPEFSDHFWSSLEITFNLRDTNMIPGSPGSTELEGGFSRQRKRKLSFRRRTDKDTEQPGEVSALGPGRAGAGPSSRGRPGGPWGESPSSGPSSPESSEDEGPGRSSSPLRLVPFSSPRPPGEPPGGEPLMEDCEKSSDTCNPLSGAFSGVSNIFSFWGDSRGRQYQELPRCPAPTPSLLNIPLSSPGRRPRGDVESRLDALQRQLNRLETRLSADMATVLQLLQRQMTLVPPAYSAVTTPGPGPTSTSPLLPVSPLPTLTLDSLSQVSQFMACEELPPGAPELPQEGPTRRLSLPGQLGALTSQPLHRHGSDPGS
Data set [4] relates to Cavia porcellus. Description: Cardiotoxicity in Dunkin-Hartley guinea pig assessed as maximal QTc prolongation time at 3 mg/kg, iv administered as 3 fold cumulative doses measured every 10 seconds at end of every 20 mins follow up period of individual dose by ECG. More on the design: dose 3 mg/kg, route intravenous. The data set is classed as toxicity, organism-based. Conditions: in vivo.

For data set [5], the system named is Cavia porcellus. Description: Toxicity to Dunkin-Hartley guinea pig assessed as marked bradyarrhythmia and death at 10 mg/kg, iv. The data set is classed as organism-based. More on the design: dose 10 mg/kg, route intravenous. Conditions: in vivo.

As to `CNCCC(Oc1ccccc1OC)c1ccccc1` (stereo not given) [NISOXETINE], the Emax with Cavia porcellus [1] is listed as 37.5 ms.
Consider `COc1ccc(CCN2CCC(Nc3nc4ccccc4n3Cc3ccc(F)cc3)CC2)cc1` [ASTEMIZOLE], for which, in the data set with Cavia porcellus [2], the EC50 stood at 0.39 µmol/kg and the pEC50 was found to be 3.74.
Take `O=C(CCCN1CCC2(CC1)C(=O)NCN2c1ccccc1)c1ccc(F)cc1` [SPIPERONE]: the Emax in the data set on Cavia porcellus [1] worked out at 100 ms.
`CN1CCC[C@H]1c1cccnc1` [NICOTINE]: the “pIC50(uM)” value in data set [3] (hek293) is on record as -2.39.
In data set [3], `CN1CCN(C2=Nc3ccccc3Nc3sc(CO)cc32)CC1` had an IC50 of 11.5 µM.
On to `COc1cc(N)c(Cl)cc1C(=O)NC1CCN(CCCOc2ccc(F)cc2)CC1OC` (stereo not given) [CISAPRIDE], for which, in the data set on Cavia porcellus [2], the EC50 came out at 2.12 µmol/kg and the pEC50 amounted to 3. The Emax in the data set with Cavia porcellus [1] came to 81.9 ms.
Turning to `CCCN(CCC)C1CCc2cccc(O)c2C1` (stereo not given) [8-OH-DPAT], in the data set with Cavia porcellus [2], the EC50 was determined as 4.57 µmol/kg and the pEC50 stood at 2.95. Also, the Emax with Cavia porcellus [1] came to 116.3 ms.
Take `CCC1(c2ccccc2)C(=O)NC(=O)NC1=O` [PHENOBARBITAL]: the “pIC50(uM)” value in data set [3] (HEK293 cells expressing human ERG channel) is -3.48.
`C=C[C@H]1C[N@@]2CC[C@H]1C[C@@H]2[C@@H](O)c1ccnc2ccc(OC)cc12` [QUINIDINE]: in the data set with Cavia porcellus [2], the EC50 came out at 8.34 µmol/kg and the pEC50 came out at 2.55. The Emax in the data set on Cavia porcellus [1] was 78.6 ms.
For `CCCCNc1ccc(C(=O)OCCN(C)C)cc1` [TETRACAINE], in the data set with Cavia porcellus [2], the EC50 is 9.04 µmol/kg and the pEC50 amounted to 2.62. In the data set on Cavia porcellus [1], the Emax was 91.5 ms.
Consider `Oc1ccc(CCN2CCC(Nc3nc4ccccc4n3Cc3ccc(F)cc3)CC2)cc1` [DESMETHEYLASTEMIZOLE], for which, in data set [3], half-maximal inhibition (IC50) required 0.001 µM.
With `CN1CC(=O)N2[C@H](c3ccc4c(c3)OCO4)c3[nH]c4ccccc4c3C[C@@H]2C1=O`, inhibition in data set [3] was half-maximal at 100 µM (IC50).
With `O=C(CCCN1CCC(O)(c2ccc(Cl)cc2)CC1)c1ccc(F)cc1` [HALOPERIDOL], in the data set on Cavia porcellus [2], the EC50 is 0.88 µmol/kg and the pEC50 is reported as 3.48. For the same molecule, the Emax in the data set on Cavia porcellus [1] is reported as 123.3 ms.
`Cc1nc2sccn2c(=O)c1CCN1CCC(=C(c2ccc(F)cc2)c2ccc(F)cc2)CC1` [RITANSERIN]: in the data set with Cavia porcellus [2], the EC50 was determined as 0.19 µmol/kg and the pEC50 is given as 4.05. Besides, the Emax in the data set with Cavia porcellus [4] is given as 106.8 ms. Further, the Activity result in the data set with Cavia porcellus [5] was “Toxic”.
`O=C(CCCN1CCC(O)(c2cccc(C(F)(F)F)c2)CC1)c1ccc(F)cc1` [TRIFLUPERIDOL]: in the data set with Cavia porcellus [2], the EC50 was determined as 7.65 µmol/kg and the pEC50 is on record as 2.51. Also, in the data set with Cavia porcellus [1], the Emax was determined as 74.7 ms.
Turning to `COC(=O)C1=CC[C@@H]2CC[C@H]1N2C` [METHYLECGONIDINE], the “pIC50(uM)” value in data set [3] (hek293) is -2.23.
For `CC(C)NCC(O)c1ccc(NS(C)(=O)=O)cc1` (stereo not given) [SOTALOL], in the data set with Cavia porcellus [2], the EC50 worked out at 6.2 µmol/kg and the pEC50 was determined as 2.77. In the data set with Cavia porcellus [1], the Emax is 97.3 ms.
